For series [1] the following is noted: cited from earlier work.
Series [2] can be described thus: Chemical stability of Edaravone (hydrolysis, oxidation). The series is classed as physicochemical. The following applies: aqueous solution, compared to the powdered form. From the text:
It may be noted that the efficacy of Edaravone has seen an undisputed success since its inception in the therapeutic category of stroke management. Edaravone per se has wide applicability and has potential to be used for more therapeutic indications. The injectable dosage form has been a limiting factor in case of increased use of this product. Importantly, developing an oral dosage form of Edaravone is a challenging process due to its less soluble and less permeable (BCS Class-IV product) nature. Further, an injectable dosage form has inherent difficulty in terms of its usage post hospitalization. […] The inventors of the present invention during development have noted that it was difficult to stabilize Edaravone.

For series [3] the following is noted: cited from earlier work. The source holds these as a separate data set.

For `CC1=NN(c2ccccc2)C(=O)C1` [Edaravone, 3-methyl-1-phenyl-2-pyrazolin-5-one], in series [1] (acetic acid), the “Solubility in acetic acid” value is “freely soluble”. Also, the “Solubility in diethyl ether” value in series [1] (diethyl ether) is reported as “slightly soluble”. Also, the Solubility in ethanol entry in series [1] (ethanol) is “freely soluble”. The Solubility in methanol entry in series [1] (methanol) was “freely soluble”. In addition, the Solubility in water entry in series [1] (water) was “slightly soluble”. Moreover, the Decomposition by oxidation result in series [2] was “easily decompose by oxidation”. Moreover, in series [3], the Lipid permeability result is “lower lipid permeability”. Also, in series [3] (poor solubility in water and lower lipid permeability), the “Bio-pharmaceutics Classification System (BCS) class” value was “Class IV”.

These data come from patent US20260325490A1, “ORAL FORMULATIONS OF EDARAVONE AND IMPROVED METHOD OF MANUFACTURING THEREOF” (BDR PHARMACEUTICALS INTERNATIONAL PRIVATE LIMITED, priority 2022, published 2026).
